Results: patent publication US11092596B2, “Material and method to screen proteasome stimulators” (Purdue Research Foundation, priority 2017, dated 2021)
Entries after “also recorded” stand apart in the source; their conditions may differ.

Columns and labels:
[1] = molecular target: T1, chymotrypsin-like activity of the 20S CP (Homo sapiens, UniProt P28074); assay: Kinetic assay, Suc-LLVY-AMC reporter hydrolysis by purified 20S CP; assay type: biochemical; settings: 25 μM compound, triplicate; hit = at least 50% increase
T1 construct: 5 μL purified 20S proteasome (90 nM in Tris-HCl) was added to the control and test wells
Procedure: Plate preparation for the kinetic assay was performed similarly for all assays. All 96-well plates contained the following in triplicate: reporter background, containing reporter only, and control wells, containing reporter and purified 20S CP. It was determined that each well will contain a total volume of 50 μL. To each well was added 40 μL of the coumarin or FRET reporters (in Tris-HCl, 50 mM, pH 7.7). To the reporter background wells was added 7.5 μL Tris-HCl and 2.5 μL of the solvent in which the compound of interest was dissolved or diluted. Similarly, to the control wells was added 2.5 μL Tris-HCl and 2.5 μL of the solvent in which the compound of interest was dissolved or diluted. To the test wells was added 2.5 μL Tris-HCl and 2.5 μL of the compound of interest at a predetermined concentration. Immediately prior to running the assay on the Synergy 4 Plate Reader, 5 μL purified 20S proteasome (90 nM in Tris-HCl) was added to the control and test wells.
The Synergy 4 Plate Reader was set to heat the plate at 37° C. and read fluorescence every 2 min over a 40 min period. The excitation and emission wavelengths were set according to the reporter. For the FRET reporter, the excitation and emission wavelengths were set to 335 nm and 493 nm, respectively, corresponding to the excitation and emission wavelengths of the Edans fluorophore. […]
Sodium dodecyl sulfate (SDS) was used to test the effect stimulating the 20S proteasome has on the hydrolysis of the FRET reporters. The appropriate concentration of SDS to use in the kinetic assay was determined using the small chymotrypsin-like activity reporter, Suc-LLVY-AMC (SEQ ID NO: 4). […] In triplicate, the following final concentrations of SDS were analyzed for the effect each has on the activity of the 20S proteasome: 4000 μM, 2000 μM, 1000 μM, 500 μM, 250 μM, 125 μM, and 0 μM, the basal activity of the 20S proteasome. […] Immediately prior to reading the plate with the Synergy 4 plate reader, 5 μL purified 20S proteasome (90 nM in Tris-HCl) was added to the wells at a final concentration of 9 nM per well.
The Synergy 4 Plate Reader was set to heat the plate at 37° C. and read fluorescence every 2 min over a 1 hr period. […] The resulting data in relative fluorescence units (RFU) was analyzed using GraphPad Prism and was plotted against time in minutes. […] Based on the resulting curve and the hyperbolic curve obtained using 1000 μM SDS (FIG. 11b), it was determined that 500 μM SDS was the appropriate concentration to use to test the effect stimulating the 20S proteasome has on the hydrolysis of the FRET reporters.
Stimulation of the 20S proteasome with SDS was determined using both the coumarin and FRET reporters for the chymotrypsin-like and trypsin-like activities of the 20S CP. […]

[2] = molecular target: chymotrypsin-like activity of the immunoproteasome core particle (iCP) (Homo sapiens, UniProt P28062); assay: Kinetic assay, CT-L FRET reporter with immunoproteasome; assay type: biochemical; settings: 25 μM compound
Procedure: Compounds 1, 2, and 3 were screened with the immunoproteasome in triplicate using the CT-L FRET reporter.
To each well was added 40 μL 20 μM CT-L FRET reporter (in Tris-HCl, 50 mM, pH 7.7). To the reporter background wells was added 5 μL Tris-HCl and 5 μL 1:1 Tris-HCl:DMSO. Similarly, to the control wells was added 5 μL 1:1 Tris-HCl:DMSO. To the test wells was added 2.5 μL Tris-HCl and 2.5 μL of a 500 μM solution of the compound of interest in DMSO. […] Immediately prior to running the assay on the Synergy 4 Plate Reader, 5 μL purified 26S proteasome (62.5 μg/mL in Tris-HCl) was added to the control and test wells.
The assay was performed using the Synergy 4 plate reader as described for the general screening kinetic assay procedure.

SMILES | primary hit status with the 4-amino acid reporter Suc-LLVY-AMC [1] | ability to stimulate the chymotrypsin-like activity of the iCP [2]
C[C@H]1[C@H](C)CC[C@]2(C(=O)O)CC[C@]3(C)C(=CC[C@@H]4[C@@]5(C)CC[C@H](O)C(C)(C)[C@@H]5CC[C@]43C)[C@H]12 [Compound 2, ursolic acid] | would not have been considered primary hits | showed an effect; also recorded: stimulate the chymotrypsin-like activity of the iCP significantly
Cc1c(C)c2c(c(C)c1OC(=O)CCC(=O)O)CC[C@@](C)(CCC[C@H](C)CCC[C@H](C)CCCC(C)C)O2 [Compound 3, vitamin E succinate] | would not have been considered primary hits | showed an effect; also recorded: stimulate the chymotrypsin-like activity of the iCP significantly
